According to patent publication US4588587A, “Method of treatment to inhibit metastasis” (Pennsylvania Hospital, priority 1983, dated 1986):

Test system: T241 sarcoma cells
Assay: Lung and mediastinal tumor colonization after intravenous injection of T241 sarcoma cells
Assay type: in vivo, mice
Procedure: Sarcoma T241 (12), a dimethylbenzanthracene-induced tumor originally derived from a C57BL/6 mouse, was maintained as ascitic tumor in syngeneic C57BL/6 mice or B6AF1 compatible hybrids (Jackson Laboratory, Bar Harbor, Me.). The capacity of the cells of this tumor to induce platelet aggregation and coagulation was assayed in a conventional manner. […] The tumor cells, however, did display a moderate procoagulant activity as reflected by a shortened recalcified clotting time. The addition of 10^6 T241 cells to syngeneic citrated plasma reduced the clotting time to between 1/3 and 1/2 control levels. Another known property of these cells is the capacity to degrade type IV collagen.
Lung tumor colonies were induced by the intravenous injection of T241 sarcoma cells. One week-old ascitic tumor cells were separated by centrifugation (100 g for 10 min) at 4° C., washed twice with Hanks' solution and suspended in the same medium (125,000-250,000 cells per ml). The suspension contained monodispersed cells of high viability (95%). Two tenths of one ml of the suspension containing 25,000 or 50,000 cells were injected intravenously into male or female C57BL/6 mice (about 25 g), and into B6AF1 mice (25-30 g), respectively, the animals housed under identical conditions of temperature, photoperiodicity, and feeding, were killed 20 days later and the number of metastases counted with a Bausch & Lomb dissecting microscope.
Two tenths of one ml of extract or semipurified fractions (100-400 ug of protein) were injected intravenously through the tail vein two hours before and two and four hours after receiving the tumor cell inoculation. Controls were similarly injected, but with 20 mM Hepes, 10 mM CaCl2, pH 7.8 aqueous solution. Additional controls were treated with either one intravenous injection of 15 units of heparin (Elkins-Sinn, Cherry Hill, N.J.) or 2 units of Bothrops atrox venom (Atroxin, Sigma, St. Louis, Mo.) in 0.2 ml of saline given 1 hour before tumor inoculation.

[1] = C57BL/6J mice, T241 cells i.v., killed 20 days later

Substance: heparin
- Percentage of Mice with Tumors, Lung [1]: 100 Percentage
- Percentage of Mice with Tumors, Mediastinal [1]: 80 Percentage
- Lung Tumors per Mouse, Median (C57BL/6J mice, excluding mice without lung tumors): 5
- Diameter of Lung Tumors (C57BL/6J mice, mean and S.E.M., excluding mice without lung tumors): 2.2 ± 0.1 mm
- antimetastatic effect on lung and mediastinal tumors (in words) (T241 sarcoma cells i.v. in mice): reduced only slightly
- antimetastatic effect at much higher doses given more frequently (compared with the extract): could not be reproduced
